Laboratory results taken from ChEMBL document CHEMBL1143277, “Submicromolar phosphinic inhibitors of Escherichia coli aspartate transcarbamoylase” (Bioorg Med Chem Lett, 2009).
Calls of active or inactive are those of the source. No cut-off for these calls is given here.

How the values were obtained:
[1] = Inhibition of Escherichia coli pEK17/EK1104 ATCase catalytic subunit assessed as formation of N-carbamoyl-L-aspartate by colorimetric assay relative to carbamyl phosphate
[2] = tested on: Escherichia coli; experiment: Competitive inhibition of Escherichia coli pEK17/EK1104 ATCase catalytic subunit assessed as formation of N-carbamoyl-L-aspartate by colorimetric assay

SMILES	Ki [1]	Activity [2]
O=C(O)C[C@H](NC(=O)CP(=O)(O)O)C(=O)O [PALA]	16 nM	Active
O=C(O)C[C@H](NC(=O)CP(=O)(O)CO)C(=O)O	193 nM	Active
O=C(O)C[C@H](NC(=O)C[PH](=O)O)C(=O)O	417 nM	Active
